According to patent US20240190880A1 (THE REGENTS OF THE UNIVERSITY OF MICHIGAN, priority 2021, published 2024):

Biological target: T1, ER (Homo sapiens, UniProt P03372)
T1 construct: host or cells: T47D and MCF7 human breast cancer cells
T1 sequence (P03372 1-595): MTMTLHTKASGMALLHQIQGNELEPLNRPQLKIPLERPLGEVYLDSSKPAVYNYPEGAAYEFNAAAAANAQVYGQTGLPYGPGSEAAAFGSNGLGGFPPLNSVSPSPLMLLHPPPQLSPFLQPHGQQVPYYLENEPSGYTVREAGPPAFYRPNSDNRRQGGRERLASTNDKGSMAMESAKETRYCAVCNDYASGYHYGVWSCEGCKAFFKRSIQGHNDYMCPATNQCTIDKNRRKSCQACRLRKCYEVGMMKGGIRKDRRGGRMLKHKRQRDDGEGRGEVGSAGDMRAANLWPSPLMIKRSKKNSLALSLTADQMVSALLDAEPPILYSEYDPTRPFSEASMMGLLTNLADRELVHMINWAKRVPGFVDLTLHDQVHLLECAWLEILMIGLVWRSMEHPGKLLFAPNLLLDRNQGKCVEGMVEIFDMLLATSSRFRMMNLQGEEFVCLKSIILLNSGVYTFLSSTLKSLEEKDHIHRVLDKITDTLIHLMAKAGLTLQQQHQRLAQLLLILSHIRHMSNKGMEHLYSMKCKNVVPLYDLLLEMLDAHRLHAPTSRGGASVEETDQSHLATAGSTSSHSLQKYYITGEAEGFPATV
Test: ER degradation activity, in-cell western blot analysis in T47D cells
Type: cell-based
Conditions: 16 hours, Table A does not say which cell line (T47D or MCF7), read-out: Potency (DC50)
Outline: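 T47D cells cultured in DMEM with 10% FBS, treated with compounds (final 0.5% DMSO) for 16 h. ER level measured by in-cell western with anti-rabbit-680/anti-mouse-800 near-infrared detection. Relative ER percentage calculated against untreated and DMSO-treated wells set as 100%.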

SMILES	DC50 [nM]
C[C@@H]1Cc2cc(O)ccc2[C@@H](c2c(F)cc(N3CCC(N4CC(CN5Cc6cc7c(cc6C5)C(=O)N(C5CCC(=O)NC5=O)C7=O)C4)CC3)cc2F)N1CC(F)F (stereo partly drawn) [E 46, 6-((1-(1-(4-((1S,3R)-2-(2,2-difluoroethyl)-6-hydroxy-3-methyl-1,2,3,4-tetrahydroisoquinolin-1-yl)-3,5-difluorophenyl)piperidin-4-yl)azetidin-3-yl)methyl)-2-(2,6-dioxopiperidin-3-yl)-6,7-dihydropyrrolo[3,4-f]isoindole-1,3(2H,5H)-dione]	> 100
C[C@@H]1Cc2cc(O)ccc2[C@@H](c2c(F)cc(N3CCC(CN4CC(N5Cc6cc7c(cc6C5)C(=O)N(C5CCC(=O)NC5=O)C7=O)C4)CC3)cc2F)N1CC(F)F (stereo partly drawn) [E 47, 6-(1-((1-(4-((1S,3R)-2-(2,2-difluoroethyl)-6-hydroxy-3-methyl-1,2,3,4-tetrahydroisoquinolin-1-yl)-3,5-difluorophenyl)piperidin-4-yl)methyl)azetidin-3-yl)-2-(2,6-dioxopiperidin-3-yl)-6,7-dihydropyrrolo[3,4-f]isoindole-1,3(2H,5H)-dione]	> 100
C[C@@H]1Cc2c([nH]c3ccccc23)[C@@H](c2c(F)cc(N3CCC(CN4CC(N5Cc6cc7c(cc6C5)C(=O)N(C5CCC(=O)NC5=O)C7=O)C4)CC3)cc2F)N1CC(F)F (stereo partly drawn) [E 50, 6-(1-((1-(4-((1R,3R)-2-(2,2-difluoroethyl)-3-methyl-2,3,4,9-tetrahydro-1H-pyrido[3,4-b]indol-1-yl)-3,5-difluorophenyl)piperidin-4-yl)methyl)azetidin-3-yl)-2-(2,6-dioxopiperidin-3-yl)-6,7-dihydropyrrolo[3,4-f]isoindole-1,3(2H,5H)-dione]	> 100
C[C@@H]1Cc2c([nH]c3ccccc23)[C@@H](c2c(F)cc(N3CCC(CN4CCC(N5Cc6cc7c(cc6C5)C(=O)N(C5CCC(=O)NC5=O)C7=O)CC4)CC3)cc2F)N1CC(F)F (stereo partly drawn) [E 51, 6-(1-((1-(4-((1R,3R)-2-(2,2-difluoroethyl)-3-methyl-2,3,4,9-tetrahydro-1H-pyrido[3,4-b]indol-1-yl)-3,5-difluorophenyl)piperidin-4-yl)methyl)piperidin-4-yl)-2-(2,6-dioxopiperidin-3-yl)-6,7-dihydropyrrolo[3,4-f]isoindole-1,3(2H,5H)-dione]	10 to 100
C[C@@H]1Cc2c([nH]c3ccccc23)[C@@H](c2c(F)cc(N3CCC(CN4CCC(N5Cc6cc7c(cc6C5)C(=O)N(C5CCC(=O)NC5=O)C7)CC4)CC3)cc2F)N1CC(F)F (stereo partly drawn) [E 53, 3-(6-(1-((1-(4-((1R,3R)-2-(2,2-difluoroethyl)-3-methyl-2,3,4,9-tetrahydro-1H-pyrido[3,4-b]indol-1-yl)-3,5-difluorophenyl)piperidin-4-yl)methyl)piperidin-4-yl)-1-oxo-3,5,6,7-tetrahydropyrrolo[3,4-f]isoindol-2(1H)-yl)piperidine-2,6-dione]	10 to 100
C[C@@H]1Cc2c([nH]c3ccccc23)[C@@H](c2c(F)cc(N3CCN(CCN4Cc5cc6c(cc5C4)C(=O)N(C4CCC(=O)NC4=O)C6)CC3)cc2F)N1CC(F)F (stereo partly drawn) [E 54, 3-(6-(2-(4-(4-((1R,3R)-2-(2,2-difluoroethyl)-3-methyl-2,3,4,9-tetrahydro-1H-pyrido[3,4-b]indol-1-yl)-3,5-difluorophenyl)piperazin-1-yl)ethyl)-1-oxo-3,5,6,7-tetrahydropyrrolo[3,4-f]isoindol-2(1H)-yl)piperidine-2,6-dione]	10 to 100
C[C@@H]1Cc2c([nH]c3ccccc23)[C@@H](c2c(F)cc(N3CCC(N4CC(CC(=O)N5Cc6cc7c(cc6C5)C(=O)N(C5CCC(=O)NC5=O)C7=O)C4)CC3)cc2F)N1CC(F)F (stereo partly drawn) [E 55, 6-(2-(1-(1-(4-((1R,3R)-2-(2,2-difluoroethyl)-3-methyl-2,3,4,9-tetrahydro-1H-pyrido[3,4-b]indol-1-yl)-3,5-difluorophenyl)piperidin-4-yl)azetidin-3-yl)acetyl)-2-(2,6-dioxopiperidin-3-yl)-6,7-dihydropyrrolo[3,4-f]isoindole-1,3(2H,5H)-dione]	> 100
C[C@@H]1Cc2c([nH]c3ccccc23)[C@@H](c2c(F)cc(N3CCC(N4CC(CC(=O)N5Cc6cc7c(cc6C5)C(=O)N(C5CCC(=O)NC5=O)C7)C4)CC3)cc2F)N1CC(F)F (stereo partly drawn) [E 56, 3-(6-(2-(1-(1-(4-((1R,3R)-2-(2,2-difluoroethyl)-3-methyl-2,3,4,9-tetrahydro-1H-pyrido[3,4-b]indol-1-yl)-3,5-difluorophenyl)piperidin-4-yl)azetidin-3-yl)acetyl)-1-oxo-3,5,6,7-tetrahydropyrrolo[3,4-f]isoindol-2(1H)-yl)piperidine-2,6-dione]	10 to 100

Continued, values first:

DC50 [nM]	SMILES
10 to 100	C[C@@H]1Cc2cc(O)ccc2[C@@H](c2c(F)cc(N3CCC4(CN(C(=O)CN5Cc6cc7c(cc6C5)C(=O)N(C5CCC(=O)NC5=O)C7=O)C4)C3)cc2F)N1CC(F)F (stereo partly drawn) [E 44, 6-(2-(6-(4-((1S,3R)-2-(2,2-difluoroethyl)-6-hydroxy-3-methyl-1,2,3,4-tetrahydroisoquinolin-1-yl)-3,5-difluorophenyl)-2,6-diazaspiro[3.4]octan-2-yl)-2-oxoethyl)-2-(2,6-dioxopiperidin-3-yl)-6,7-dihydropyrrolo[3,4-f]isoindole-1,3(2H,5H)-dione]
< 10	C[C@@H]1Cc2cc(O)ccc2[C@@H](c2c(F)cc(N3CC4(CCN(C(=O)CN5Cc6cc7c(cc6C5)C(=O)N(C5CCC(=O)NC5=O)C7=O)CC4)C3)cc2F)N1CC(F)F (stereo partly drawn) [E 45, 6-(2-(2-(4-((1S,3R)-2-(2,2-difluoroethyl)-6-hydroxy-3-methyl-1,2,3,4-tetrahydroisoquinolin-1-yl)-3,5-difluorophenyl)-2,7-diazaspiro[3.5]nonan-7-yl)-2-oxoethyl)-2-(2,6-dioxopiperidin-3-yl)-6,7-dihydropyrrolo[3,4-f]isoindole-1,3(2H,5H)-dione]
10 to 100	O=C1CCC(N2Cc3cc4c(cc3C2=O)CN(C(=O)CN2CC3(C2)CN(c2ccc(C5=C(c6ccc(F)cc6)CCCc6cc(O)ccc65)cc2)C3)C4)C(=O)N1 (stereo not shown) [E 48]
10 to 100	O=C1CCC(N2C(=O)c3cc4c(cc3C2=O)CN(C(=O)CN2CC3(C2)CN(c2ccc(C5=C(c6ccc(F)cc6)CCCc6cc(O)ccc65)cc2)C3)C4)C(=O)N1 (stereo not shown) [E 49, 2-(2,6-dioxopiperidin-3-yl)-6-(2-(6-(4-(8-(4-fluorophenyl)-3-hydroxy-6,7-dihydro-5H-benzo[7]annulen-9-yl)phenyl)-2,6-diazaspiro[3.3]heptan-2-yl)acetyl)-6,7-dihydropyrrolo[3,4-f]isoindole-1,3(2H,5H)-dione]
< 10	C[C@@H]1Cc2c([nH]c3ccccc23)[C@@H](c2c(F)cc(N3CCC(CN4CC(N5Cc6cc7c(cc6C5)C(=O)N(C5CCC(=O)NC5=O)C7)C4)CC3)cc2F)N1CC(F)F (stereo partly drawn) [E 52, 3-(6-(1-((1-(4-((1R,3R)-2-(2,2-difluoroethyl)-3-methyl-2,3,4,9-tetrahydro-1H-pyrido[3,4-b]indol-1-yl)-3,5-difluorophenyl)piperidin-4-yl)methyl)azetidin-3-yl)-1-oxo-3,5,6,7-tetrahydropyrrolo[3,4-f]isoindol-2(1H)-yl)piperidine-2,6-dione]
